{
  "source": "patent US20110160121A1",
  "about": "“UNACYLATED GHRELIN AND ANALOGS AS THERAPEUTIC AGENTS FOR VASCULAR REMODELING IN DIABETIC PATIENTS AND TREATMENT OF CARDIOVASCULAR DISEASE” (ALIZE PHARMA SAS, priority 2008, published 2011)",
  "key": {"CAC [1]": {"system": "CAC", "experiment": "CAC mobilization assay in diabetic mice (NOD/SCID, ob/ob)", "assay_type": "in vivo, mouse", "settings": "FIG. 4B", "protocol": "To further confirm data obtained by treating patients and healthy controls with UAG, two different mouse models of diabetes were used. NOD/SCID mice and ob/ob mice were treated for different time intervals with saline or UAG. The person skilled in the art will be familiar with the NOD/SCID mice and ob/ob mice models.\nAfter treatment, cells were recovered, assayed by FACS analysis, counted and cultured. […] Black lines refer to preimmune IgG used as negative control and grey lines refer to surface marker expression. Similar results were obtained when CAC from untreated diabetic mice as well as untreated or treated wild-type mice were analyzed (data not shown).\nDiabetic and control mice—Mice were divided in four groups. The plasma glucose and insulin determination for each group are reported. Sixteen 6 weeks old ob/ob mice (blood glucose, 600±45 mg/dL, insulin, 5.5±0.9 ng/ml); sixteen C56BL6/J wild type mice (blood glucose, 150±18.2 mg/dL, insulin, 1±0.05 ng/ml); ten 7 weeks old NOD/SCID mice (blood glucose, 164±12.9 mg/dL, insulin 1.2±.0.12 ng/ml); ten 17 weeks old NOD/SCID mice (blood glucose, 536±36.3 mg/dL, insulin 4.85±0.74 ng/ml). Animal procedures conformed to the Guide for Care and Use of […] (National Institutes of Health publication no. […], revised 1985).\nMobilization assay—Mice were treated for 12 hours with UAG or saline. CAC recovered and purified as above described, were put in culture and counted by three independent investigators. The technical ratio of CAC was calculated by comparing the numbers of CAC/μL of blood drawn from left ventricular."}, "CAC [2]": {"system": "CAC", "experiment": "Matrigel-plug assay: de novo vessel formation by CAC from diabetic patients in SCID mice", "assay_type": "in vivo, human", "protocol": "To evaluate whether CAC recovered from UAG-treated diabetic patients rescue their vasculogenic capability, de novo vessel formation was assayed in vivo. To this end, Matrigel plugs containing IL-3 and CSFE-labelled CAC, recovered from untreated or UAG-treated patients, were injected into SCID mice, 15 days after injection Matrigel plugs were recovered and analyzed by immunohistochemistry. […] On the contrary no functional vessels could be detected when CAC recovered from untreated patients were used (FIG. 4E, panel a (left)). To exclude the possibility that the neo-vessels derived from vasculogenic cells of host origin, immunofluorescence assay was performed using the anti-human HLA Class I and the anti-mouse MHC II antibodies.\nMatrigel-plug assay—For murine angiogenesis assay, untreated or UAG-treated CAC, obtained from type 2 diabetic patients, were counted and resuspended in DMEM (4×10^6 in 250 μL DMEM). […]\nImmunohistochemistry and immunofluorescence—For immunohistochemistry, sections from paraffin-embedded blocks of Matrigel plugs were collected onto poly-lysine-coated slides. […] The percentage of positive cells was counted in 4 non-sequential sections for each experiment at ×40 magnification. […] The number of MHC II or HLA I positive vessels was determined by counting 10 randomly selected fields in three different samples."}, "CAC [3]": {"system": "CAC", "experiment": "CAC cell-cycle progression (percentage of cells in S phase, FACS)", "assay_type": "cell-based, human", "settings": "cultured CAC; effect still evident after 7 days of culture; FIG. 1A", "protocol": "First, cell-cycle progression in response to UAG and AG was evaluated. […] To investigate whether this effect relies on inhibition of baseline ROS production, DCF-DA assay was performed. […] H2O2 was used as positive control. AGE-mediated damage signals mainly rely on ROS production (Ref. 29). […] Isolation and Culture of CAC from Peripheral Blood Mononuclear Cells—Peripheral-blood mononuclear cells (PB-MNC) isolated by Fycoll Histopaque 1077 (Sigma) were resuspended in 20% FBS 199 Medium and plated on fibronectin-coated dishes (Biocoat, Becton Dickinson Labware) as described by Hill et al. (Ref. 19). Human UAG studies were performed on CAC recovered from normal donors and diabetic patients. The purity of sorted cells was assessed by FACS analysis (Ref. 20). For experiments, the isolated CAC were cultured under 5% CO2 at 37° C. for 4 days on 20 μg/ml fibronectin-coated dishes in EGM-2 medium containing 10% FBS, hydrocortisone, human Fibroblast Growth Factor, Vascular Endothelial Growth Factor, Insulin Growth Factor 1, ascorbic acid, human Epidermal Growth Factor, gentamicin and amphotericin-B (Cambrex, Walkersville, Md., USA) alone or in combination with 1 μM UAG and 1.2 mg/ml AGE. […] Cell surface molecules were evaluated by flow cytometry as previously described (Ref. 24). Frequency of marker-positive cells is expressed as mean±standard deviation (SD)."}},
  "note": "Where no end group is shown, it is not given here.",
  "data": [
    {"substance": "1-NH2Gly-Ser-Ser-Phe-Leu-Ser-Pro-Glu-His-Gln-Arg-Val-Gln-Gln-Arg-Lys-Glu-Ser-Lys-Lys-Pro-Pro-Ala-Lys-Leu-Gln-Pro-Arg-28 (H-GSSFLSPEHQRVQQRKESKKPPAKLQPR; ends and bridges not checked; listed as Homo sapiens) [UAG]", "values": [
      {"measurement": "number of CAC relative to untreated wild type mice", "setting": "CAC [1]; UAG-treated ob/ob mice vs untreated wild type mice", "result": "fully restores the number of CAC to normal physiological levels"},
      {"measurement": "percentage of recovered cells (CAC)", "setting": "CAC [1]; diabetic NOD/SCID mice", "result": "increase the percentage of recovered cells"},
      {"measurement": "number of circulating CAC", "setting": "CAC [1]; ob/ob mice", "result": "increased number of circulating CAC"},
      {"measurement": "de novo formation of functional vessels", "setting": "CAC [2]; CSFE-labelled CAC from UAG-treated diabetic patients, Matrigel plugs with IL-3 in SCID mice, 15 days, FIG. 4E", "result": "formed functional vessels"},
      {"measurement": "origin of vessels (human HLA Class I vs mouse MHC II)", "setting": "CAC [2]; Matrigel plugs, immunofluorescence, FIG. 4F", "result": "majority of vessels are lined by human HLA Class I positive cells"},
      {"measurement": "percentage of cells in S phase", "setting": "CAC [3]", "result": "significant increase in the percentage of cells in S phase"}
    ]}
  ]
}
